Data as given in US10744150B2, “Cyclic dinucleotides as anticancer agents” (BRISTOL-MYERS SQUIBB COMPANY, priority 2017, dated 2020).
Read-outs that look alike come from different tables or passages of the source.

Key:
NFkB = assay: STING THP1 reporter assay, NF-κB pathway (SEAP, QUANTI-Blue); type: cell-based; conditions: THP1-Dual cells, 10% human plasma, 100% activation = 100 μM cGAMP
Source text: (§1) THP1-Dual™ cells were derived from the human THP-1 monocyte cell line by stable integration of two inducible reporter constructs. To this end, THP1-Dual™ cells allow the simultaneous study of the NF-κB pathway, by monitoring the activity of SEAP, and the IRF pathway by assessing the activity of a secreted luciferase (Lucia). Both reporter proteins are readily measurable in the cell culture supernatant when using QUANTI-Blue™, a SEAP detection reagent, and QUANTI-Luc™, a luciferase detection reagent.
(§2) THP1-Dual™ cells induce the activation of NF-κB in response to STING agonists. They also trigger the IRF pathway upon stimulation with STING agonists, such as cGAMP. Here, the THP-1-Dual cells were used to assess STING binders for function on the cellular level.
(§3) Serial dilutions of compounds in DMSO were added to low volume 384 well plates at 100 nl/well using an ECHO acoustic dispenser (Labcyte, model 550) to achieve final starting concentration of 100 μM in cell suspension. THP-1 Dual™ STING reporter cells (Invivogen, Dual cells cat # THPD-nfis) were added to the plates with compounds at 15,000 cells in 10 μL per well in RPMI media (Gibco, cat #11875) containing 10% human plasma in a low volume 384-well black wall clear bottom tissue culture plate (Corning, cat #3542) for SEAP assay and low volume solid white plate (Corning, cat #3826) for luciferase assay. One column of the plate was reserved for treatment with cGAMP at 100 μM for 100% activation calculation and one column for no treatment (DMSO only) for baseline activation. Plates were then incubated in 37° C. incubator at 5% CO2 for 20 hours.
(§4) In the SEAP assay, 5 μl of 2× QuantiBlue (Invivogen, cat # Rep-qb2) is added to 384 well black plates seeded with THP1 cells and incubated at 37° C. for 2 hours. Plates were read on the Envision (Perkin Elmer) at 620 nm wavelength (OD620). In the luciferase assay, 5 μl of Quantiluc (Invivogen, Rep-qlc2) is added to white 384 well plates seeded with THP1 cells and read at 5 minutes on the Envision (Perkin Elmer) using a luminescence protocol (RLU). For both cell lines, 100% activation was determined by value (RLU) of THP-1 Dual STING cells stimulated with 100 μM cGAMP (Invivogen, cat # TLRL-NACGA23-5).

IRF3 = assay: STING THP1 reporter assay, IRF pathway (secreted luciferase Lucia, QUANTI-Luc); type: cell-based; conditions: THP1-Dual cells, 10% human plasma, 100% activation = 100 μM cGAMP, luciferase readout, read-out: THP1 Reporter Assays EC50 IRF3
Source text: as §1, §2, §3, §4

[1] = target: T1, STING AQ: His-TVMV-S-hSTING(155-341)-G230A-R293Q (Homo sapiens, UniProt Q86WV6, G230A/H232R/R293Q); assay: STING HTRF binding assay (time resolved FRET competition), STING AQ; conditions: 20 nM His-tagged STING cytoplasmic domain, 40 nM fluorescein-labeled cGAMP analog probe, one hour; read-out: HTRF Binding Assays IC50 STING AQ
T1 construct: His-TVMV-S-hSTING(155-341)-G230A-R293Q
T1 sequence (Q86WV6 with tags, fused parts or gaps G230A/H232R/R293Q): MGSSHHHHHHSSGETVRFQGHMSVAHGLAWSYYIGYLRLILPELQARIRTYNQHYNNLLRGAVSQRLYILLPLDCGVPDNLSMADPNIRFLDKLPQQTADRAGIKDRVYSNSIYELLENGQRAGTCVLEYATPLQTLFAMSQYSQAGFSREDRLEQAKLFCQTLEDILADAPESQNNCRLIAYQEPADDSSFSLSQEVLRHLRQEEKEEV
Protocol: (§5) A time resolved FRET-based competition binding assay was used to assess test article binding to STING WT and STING AQ. His-tagged STING cytoplasmic domain (WT or AQ) at a concentration of 20 nM was incubated with 2.5 nM Tb-labeled anti-His antibody, test compound, and fluorescein-labeled cGAMP analog probe (BioLog cat. no. C195) at a concentration of 200 nM (STING WT) or 40 nM (STING AQ) in PBS containing 0.005% Tween-20 and 0.1% BSA for one hour. Fluorescence at 495 nm and 520 nm was measured using an EnVision microplate reader to quantify FRET between Tb-labeled anti-His antibody and fluorescein-labeled probe. Background was defined as the signal obtained in the absence of STING protein, and background subtracted FRET ratios were normalized to the maximum signal obtained in the absence of test compound. These values were converted to a percent inhibition. Percent inhibition was determined for test compounds at 11 concentrations. The IC50, defined as the concentration of competing test compound needed to reduce specific binding of the probe by 50%, was calculated using the 4 parameter logistic equation to fit the data

[2] = target: T2, STING WT: His-TVMV-S-hSTING(155-341)-H232R (Homo sapiens, UniProt Q86WV6, H232R); assay: STING HTRF binding assay (time resolved FRET competition), STING WT; conditions: 20 nM His-tagged STING cytoplasmic domain, 200 nM fluorescein-labeled cGAMP analog probe, one hour; read-out: HTRF Binding Assays IC50 STING WT
T2 construct: His-TVMV-S-hSTING(155-341)-H232R
T2 sequence (Q86WV6 with tags, fused parts or gaps H232R): as the sequence (Q86WV6 with tags, fused parts or gaps G230A/H232R/R293Q) above, with A99G, Q162R counted along it
Protocol: as §5

[3] = 20 hours, SEAP readout OD620, read-out: THP1 Reporter Assays EC50 NFkB
[4] = Homo sapiens, THP-1, 20 h, SEAP readout OD620, read-out: THP1 Reporter Assays EC50 NFkB

Compound	EC50 (NFkB; [3])	EC50 (IRF3; 20 hours)	IC50 [1]	IC50 [2]	EC50 (NFkB; [4])	EC50 (IRF3; Homo sapiens, THP-1, 20 h)
Nc1ncnc2c1ncn2[C@@H]1C[C@@H]2COP(=O)(S)O[C@H]3[C@@H](F)[C@H](n4cnc5c(N)ncnc54)O[C@@H]3COP(=O)(S)OC[C@H]21 (single isomer, unassigned) [Example 1-1]	> 100 µM	> 100 µM	0.06 µM	1.6 µM	–	–
Nc1ncnc2c1ncn2[C@@H]1C[C@@H]2COP(=O)(S)O[C@H]3[C@@H](F)[C@H](n4cnc5c(N)ncnc54)O[C@@H]3COP(=O)(S)OC[C@H]21 (single isomer, unassigned) [Example 1-2]	6 µM	3 µM	0.01 µM	0.09 µM	–	–
Nc1ncnc2c1ncn2[C@@H]1C[C@@H]2COP(=O)(S)O[C@H]3[C@@H](F)[C@H](n4cnc5c(N)ncnc54)O[C@@H]3COP(=O)(S)OC[C@H]21 (single isomer, unassigned) [Example 2-1]	> 100 µM	> 100 µM	0.21 µM	24 µM	–	–
Nc1ncnc2c1ncn2[C@@H]1C[C@@H]2COP(=O)(S)O[C@H]3[C@@H](F)[C@H](n4cnc5c(N)ncnc54)O[C@@H]3COP(=O)(S)OC[C@H]21 (single isomer, unassigned) [Example 2-2]	> 100 µM	85 µM	0.01 µM	0.88 µM	–	–
Nc1ncnc2c1ncn2[C@@H]1O[C@@H]2COP(O)(=S)OC[C@@H]3[C@@H](COP(O)(=S)O[C@H]2[C@H]1F)C[C@H]3n1cnc2c(O)nc3nccn3c21 (single isomer, unassigned) [Example 3-1]	> 100 µM	> 100 µM	0.43 µM	15 µM	–	–
Nc1ncnc2c1ncn2[C@@H]1O[C@@H]2COP(O)(=S)OC[C@@H]3[C@@H](COP(O)(=S)O[C@H]2[C@H]1F)C[C@H]3n1cnc2c(O)nc3nccn3c21 (single isomer, unassigned) [Example 3-2]	> 100 µM	> 100 µM	0.46 µM	4 µM	–	–
Nc1ncnc2c1ncn2[C@@H]1O[C@@H]2COP(O)(=S)OC[C@@H]3[C@@H](COP(O)(=S)O[C@H]2[C@H]1F)C[C@H]3n1cnc2c(O)nc3nccn3c21 (single isomer, unassigned) [Example 3-3]	58 µM	33 µM	0.14 µM	0.18 µM	–	–
Nc1ncnc2c1ncn2[C@@H]1O[C@@H]2COP(O)(=S)OC[C@@H]3[C@@H](COP(O)(=S)O[C@H]2[C@H]1F)C[C@H]3n1cnc2c(O)nc3nccn3c21 (single isomer, unassigned) [Example 3-4]	40 µM	31 µM	0.09 µM	1 µM	–	–
Nc1ncnc2c1ncn2[C@@H]1C[C@@H]2COP(O)(=S)O[C@@H]3[C@H](O)[C@@H](COP(O)(=S)OC[C@H]21)O[C@H]3n1cnc2c(N)ncnc21 (single isomer, unassigned) [Example 4-1]	–	–	2.8 µM	> 100 µM	> 100 µM	> 100 µM
Nc1ncnc2c1ncn2[C@@H]1C[C@@H]2COP(O)(=S)O[C@@H]3[C@H](O)[C@@H](COP(O)(=S)OC[C@H]21)O[C@H]3n1cnc2c(N)ncnc21 (single isomer, unassigned) [Example 4-2]	87 µM	72 µM	0.05 µM	3.7 µM	–	–
Nc1ncnc2c1ncn2[C@@H]1O[C@@H]2COP(O)(=S)OC[C@@H]3[C@@H](COP(O)(=S)O[C@H]2[C@H]1F)C[C@H]3n1cnc2c(=O)[nH]cnc21 (single isomer, unassigned) [Example 5-1]	–	> 100 µM	0.1 µM	5.7 µM	> 100 µM	–
Nc1ncnc2c1ncn2[C@@H]1O[C@@H]2COP(O)(=S)OC[C@@H]3[C@@H](COP(O)(=S)O[C@H]2[C@H]1F)C[C@H]3n1cnc2c(=O)[nH]cnc21 (single isomer, unassigned) [Example 5-2]	> 100 µM	> 100 µM	0.02 µM	0.44 µM	–	–
Nc1ncnc2c1ncn2[C@@H]1O[C@@H]2COP(O)(=S)OC[C@@H]3[C@@H](COP(O)(=S)O[C@H]2[C@H]1F)C[C@H]3n1cnc2c(=O)[nH]cnc21 (single isomer, unassigned) [Example 5-3]	> 100 µM	> 100 µM	0.04 µM	2.7 µM	–	–
Nc1ncnc2c1ncn2[C@@H]1O[C@@H]2COP(O)(=S)OC[C@@H]3[C@@H](COP(O)(=S)O[C@H]2[C@H]1F)C[C@H]3n1cnc2c(=O)[nH]cnc21 (single isomer, unassigned) [Example 5-4]	91 µM	12 µM	0.01 µM	0.12 µM	–	–
Nc1ncnc2c1ncn2[C@@H]1C[C@@H]2COP(O)(=S)O[C@H]3C[C@H](n4ccc5c(Cl)ncnc54)O[C@@H]3COP(=O)(S)OC[C@H]21 (single isomer, unassigned) [Example 6-1]	–	–	38.9 µM	> 100 µM	> 100 µM	> 100 µM
Nc1ncnc2c1ncn2[C@@H]1C[C@@H]2COP(O)(=S)O[C@H]3C[C@H](n4ccc5c(Cl)ncnc54)O[C@@H]3COP(=O)(S)OC[C@H]21 (single isomer, unassigned) [Example 6-2]	–	> 100 µM	82.6 µM	> 100 µM	–	–
Nc1ncnc2c1ncn2[C@@H]1C[C@@H]2COP(O)(=S)O[C@H]3C[C@H](n4ccc5c(Cl)ncnc54)O[C@@H]3COP(=O)(S)OC[C@H]21 (single isomer, unassigned) [Example 6-3]	–	> 100 µM	31.9 µM	> 100 µM	–	–
Nc1ncnc2c1ncn2[C@@H]1C[C@@H]2COP(O)(=S)O[C@H]3C[C@H](n4ccc5c(Cl)ncnc54)O[C@@H]3COP(=O)(S)OC[C@H]21 (single isomer, unassigned) [Example 6-4]	–	> 100 µM	14.8 µM	> 100 µM	–	–
Nc1ncnc2c1ncn2[C@@H]1C[C@@H]2COP(O)(=S)O[C@H]3[C@H](F)[C@H](n4ccc5c(Cl)ncnc54)O[C@@H]3COP(O)(=S)OC[C@H]21 (single isomer, unassigned) [Example 7-1]	–	–	32.7 µM	> 100 µM	> 100 µM	> 100 µM
Nc1ncnc2c1ncn2[C@@H]1C[C@@H]2COP(O)(=S)O[C@H]3[C@H](F)[C@H](n4ccc5c(Cl)ncnc54)O[C@@H]3COP(O)(=S)OC[C@H]21 (single isomer, unassigned) [Example 7-2]	> 100 µM	> 100 µM	–	> 100 µM	–	–
Nc1ncnc2c1ccn2[C@@H]1O[C@@H]2COP(O)(=S)OC[C@@H]3[C@@H](COP(O)(=S)O[C@H]2[C@@H]1F)C[C@H]3n1cnc2c(N)ncnc21 (single isomer, unassigned) [Example 8-1]	23 µM	–	–	> 100 µM	–	> 100 µM
